PMC11593002 (Current Issues in Molecular Biology, 2024)
Values joined by “and” are separate entries in the source; they are usually repeats but may differ in a detail not shown here. Equal values may be shown once. “Also recorded” adds a separate entry of the source.

Assays:
MCF-10A = test: MTT-dye reduction antiproliferative assay, MCF-10A; format: cell-based; settings: for IC50: Homo sapiens
Excerpt: (§1) Breast cell lines (MCF-10A, MCF-7, and MDA-MB-231) were purchased from the American Type Culture Collection—ATCC (Manassas, VA, USA). MCF-7 and MDA-MB-231 were cultivated in Dulbecco’s modified Eagle’s medium (DMEM), supplemented with 10% fetal bovine serum (FBS), 1% sodium pyruvate, and 1% MEM non-essential amino acids (NEAA) without antibiotics. The non-tumorigenic cell line (MCF-10A) was cultivated in DMEM medium (Sigma-Aldrich, St. Louis, MO, USA) and supplemented with 10% FBS, 1% sodium pyruvate, 1% non-essential amino acids (NEAA), 20 ng/mL human epidermal growth factor (hEGF), 10 μg/mL insulin, and 0.5 μg/mL hydrocortisone without antibiotics. All cell lines were maintained in a humidified atmosphere with 5% CO2 at 37 °C.
(§2) The antiproliferative activity was tested via using the standard MTT-dye reduction assay described by Mosmann. The method is based on the metabolism of the tetrazolium salt MTT to insoluble formazan. The formazan absorption was registered using a microplate reader at λ = 540 nm. The measured absorption is an indicator of cell viability and metabolic activity.

MDA-MB-231 [1] = test: MTT-dye reduction antiproliferative assay, MDA-MB-231; format: cell-based
Excerpt: as §1, §2

MCF-7 [2] = test: MTT-dye reduction antiproliferative assay, MCF-7; format: cell-based; settings: for increase in IC50: drug + Iscador Qu, concentration not given
Excerpt: as §1, §2

MDA-MB-231 [3] = test: Cell cycle analysis by propidium iodide staining (FACS), MDA-MB-231; format: cell-based; settings: for effect on cell cycle of combination vs anticancer drug alone: drug + Iscador Qu (selected combinations); for effect on cell cycle: treatment alone
Method: (§3) After trypsinization, the cells (MCF7, MDA-MB-231, and MCF10A) were resuspended in medium + 10% FCS and centrifuged (1000 rpm, 5 min); then, the pellet was suspended in PBS (1 mL) and fixed with EtOH. After suspension in 2.5 mL pre-cold 70% EtOH, the cells were incubated on ice for 15 min. The staining procedure was as follows: The pellet was suspended in a 500 μL PI solution in PBS (final concentration of PI 1 μg/mL) and 0.1 mg/mL RNAse A, and 0.05% Triton X-100 was added. Following the incubation for 10 min at 37 °C, the cells were transferred to the flow cytometer, and cell fluorescence was measured. The samples were measured by flow cytometry (LSR II, BD Biosciences, Franklin Lakes, NJ, USA) and analyzed using BD FACS DIVA software v. 6.1.3 (BD Biosciences). The control samples of all cell lines underwent the same treatment but without the adding any anticancer drugs or Iscador Qu.
(§4) In the search of the mechanism of action, the cell cycle arrest induced after treatment with the selected combinations was analyzed. The cell aliquots were collected, and FACS analyses were used to detect the effects of the treatments. A propidium iodide staining assay was performed (Figures S1 and S2).

microtubule = system: microtubule; set-up: method as in PMID 7670132; settings: cited from earlier work
MCF-7 [4] = test: Cell cycle analysis by propidium iodide staining (FACS), MCF-7; format: cell-based; settings: for effect on cell cycle of combination vs anticancer drug alone: drug + Iscador Qu (selected combinations); for effect on cell cycle: mono treatment
Method: as §3, §4

[5] = MDA-MB-231, drug + Iscador Qu 40 µg/mL vs drug alone
[6] = MDA-MB-231, drug + Iscador Qu 80 µg/mL vs drug alone
[7] = drug + Iscador Qu 10 µg/mL vs drug alone
[8] = drug + Iscador Qu 20 µg/mL vs drug alone
[9] = Iscador Qu both concentrations (50 or 100 µg/mL) or not specified
[10] = drug + Iscador Qu 50 µg/mL vs drug alone
[11] = drug + Iscador Qu 100 µg/mL vs drug alone
[12] = higher Iscador Qu concentration (20 µg/mL)
[13] = Iscador Qu both concentrations (10 and 20 µg/mL) or not specified
[14] = MDA-MB-231, Iscador Qu both concentrations (40 and 80 µg/mL) or not specified

## O=c1[nH]cc(F)c(=O)[nH]1 [5-Fluorouracyl, 5-Fluorouracil]
MCF-10A; Iscador Qu 50 µg/mL
  effect of combined treatment with Iscador Qu on IC50 / antiproliferative effect: did not change the antiproliferative properties
MCF-10A; Iscador Qu 100 µg/mL
  effect of combined treatment with Iscador Qu on IC50 / antiproliferative effect: slightly decreased
MDA-MB-231 [1]; Homo sapiens, MDA-MB-231, drug alone
  IC50: 2.04 µM
MDA-MB-231 [1]; [5]
  fold decrease in IC50: 1.2 fold
MDA-MB-231 [1]; [6]
  fold decrease in IC50: 1.5 fold
  reduction in IC50: about 30%
MDA-MB-231 [1]; combination with Iscador Qu
  lesser reduction in IC50 in MDA-MB-231 compared to MCF-7: 33%
MCF-7 [2]; Homo sapiens, MCF7, drug alone
  IC50: 6.79 µM
MCF-7 [2]; [7]
  fold decrease in IC50: 1.5 fold
MCF-7 [2]; [8]
  fold decrease in IC50: 2.7 fold
  reduction in IC50: ~65%

## N.N.[Cl][Pt][Cl] [Cisplatin, cis-diamminedichloroplatinum (II)]
MCF-10A; [9]
  effect of combined treatment with Iscador Qu on IC50 / antiproliferative effect: enhanced the antiproliferative effect
MDA-MB-231 [1]; [5]
  Relative Change of IC50 (%): 56.77%
MDA-MB-231 [1]; [6]
  Relative Change of IC50 (%): 43.80%
  increase in IC50: 44%
MDA-MB-231 [1]; MDA-MB-231, drug + Iscador Qu, concentration not given
  fold increase in IC50 (reduced antiproliferative effect): 1.5 fold and 1.6 fold
MDA-MB-231 [3]
  effect on cell cycle of combination vs anticancer drug alone: did not alter the effect
  effect on cell cycle: blocked the cells in the S phase
MCF-7 [2]; [7]
  Relative Change of IC50 (%): 8.36%
MCF-7 [2]; [8]
  Relative Change of IC50 (%): −29.37%
  reduction in IC50: 30%

## CC(=O)O[C@@]12CO[C@@H]1C[C@H](O)[C@@]1(C)C(=O)[C@H](O)C3=C(C)[C@@H](OC(=O)[C@H](O)[C@@H](NC(=O)OC(C)(C)C)c4ccccc4)C[C@@](O)([C@@H](OC(=O)c4ccccc4)[C@H]21)C3(C)C [Docetaxel]
microtubule
  potency as an inhibitor of microtubule depolymerization compared to Paclitaxel: 2 fold
MCF-10A; drug + Iscador Qu 50 µg/mL
  IC50: ~0.0042 µM
MCF-10A; drug + Iscador Qu 100 µg/mL
  IC50: ~0.0042 µM
MCF-10A; single treatment with drug
  IC50: 0.00518 µM
MCF-10A; [9]
  effect of combined treatment with Iscador Qu on IC50 / antiproliferative effect: slightly reduced
MCF-10A; [10]
  fold decrease in IC50: 1.2 fold
MCF-10A; [11]
  fold decrease in IC50: 1.2 fold
MDA-MB-231 [1]; [5]
  fold decrease in IC50: more than 2 fold
MDA-MB-231 [1]; [6]
  fold decrease in IC50: 4 fold
  reduction in IC50: 72%
MDA-MB-231 [3]
  effect on cell cycle of combination vs anticancer drug alone: did not alter the effect
  effect on cell cycle: cell cycle arrest in the G0 phase
MCF-7 [2]; [12]
  effect of combined treatment with Iscador Qu on IC50 / antiproliferative effect: very slight IC50 decrease
MCF-7 [2]; low Iscador Qu concentration (10 µg/mL)
  effect of combined treatment with Iscador Qu on IC50 / antiproliferative effect: IC50 increase

## COc1cccc2c1C(=O)c1c(O)c3c(c(O)c1C2=O)C[C@@](O)(C(=O)CO)C[C@@H]3O[C@H]1C[C@H](N)[C@H](O)[C@H](C)O1 [Doxorubicin]
MCF-10A; [10]
  fold decrease in IC50: about 2 fold
MCF-10A; [11]
  fold decrease in IC50: about 2 fold
MDA-MB-231 [1]; [5]
  reduction in IC50 dose: 21%
MCF-7 [2]; [7]
  fold decrease in IC50: about 2 fold
  reduction in IC50 dose: 50%
MCF-7 [2]; [8]
  fold decrease in IC50: about 2 fold

## COc1cccc2c1C(=O)c1c(O)c3c(c(O)c1C2=O)C[C@@](O)(C(=O)CO)C[C@@H]3O[C@H]1C[C@H](N)[C@@H](O)[C@H](C)O1 [Epirubicin]
MCF-10A; drug alone
  IC50: 387 µM
MCF-10A; [11]
  fold decrease in IC50: 2 fold
MDA-MB-231 [1]; [5]
  fold decrease in IC50: 2 fold
MDA-MB-231 [1]; [6]
  fold decrease in IC50: 2 fold
  reduction in IC50: 47%
MCF-7 [2]; [13]
  effect of combined treatment with Iscador Qu on IC50 / antiproliferative effect: did not exhibit significant sensitivity; also recorded: No effect

## CCc1c2c(nc3ccc(OC(=O)N4CCC(N5CCCCC5)CC4)cc13)-c1cc3c(c(=O)n1C2)COC(=O)[C@]3(O)CC [Irinotecan]
MCF-10A; [9]
  effect of combined treatment with Iscador Qu on IC50 / antiproliferative effect: did not affect IC50
MDA-MB-231 [1]; [14]
  effect of combined treatment with Iscador Qu on IC50 / antiproliferative effect: very slight IC50 decrease; also recorded: No significant alteration in IC50
MCF-7 [2]; [13]
  effect of combined treatment with Iscador Qu on IC50 / antiproliferative effect: did not affect IC50; also recorded: No effect

## CN(Cc1cnc2nc(N)nc(N)c2n1)c1ccc(C(=O)N[C@@H](CCC(=O)O)C(=O)O)cc1 [Methotrexate]
MCF-10A; Iscador Qu 50 µg/mL
  effect of combined treatment with Iscador Qu on IC50 / antiproliferative effect: did not reduce the IC50 dose
MCF-10A; Iscador Qu 100 µg/mL
  effect of combined treatment with Iscador Qu on IC50 / antiproliferative effect: slightly increased
MDA-MB-231 [1]; [6]
  fold decrease in IC50: 1.5 fold
  reduction in IC50: about 30%
MCF-7 [2]; [13]
  effect of combined treatment with Iscador Qu on IC50 / antiproliferative effect: No effect
MCF-7 [2]; Iscador Qu both concentrations (10 and 20 µg/mL) or not specified, listed as methotrexate
  effect of combined treatment with Iscador Qu on IC50 / antiproliferative effect: did not exhibit any sensitivity

## O=C(c1cc(Cc2n[nH]c(=O)c3ccccc23)ccc1F)N1CCN(C(=O)C2CC2)CC1 [Olaparib]
MCF-7 [4]
  effect on cell cycle of combination vs anticancer drug alone: no significant difference
  effect on cell cycle: arrest in the G2/M phase
MCF-10A; [9]
  effect of combined treatment with Iscador Qu on IC50 / antiproliferative effect: slight decrease in IC50 dose
MDA-MB-231 [1]; MDA-MB-231, Iscador Qu 40 µg/mL
  effect of combined treatment with Iscador Qu on IC50 / antiproliferative effect: negative treatment effect
MDA-MB-231 [1]; [14]
  effect of combined treatment with Iscador Qu on IC50 / antiproliferative effect: increase in IC50 dose
MDA-MB-231 [1]; [6]
  increase in IC50: 22%
MCF-7 [2]; [13]
  effect of combined treatment with Iscador Qu on IC50 / antiproliferative effect: antagonistic effect; also recorded: increase in IC50 dose
MCF-7 [2]
  increase in IC50: 37%
MCF-7 [2]; [12]
  effect of combined treatment with Iscador Qu on IC50 / antiproliferative effect: negative treatment effect

## O=C1[O][Pt]2([NH][C@@H]3CCCC[C@H]3[NH]2)[O]C1=O [Oxaliplatin]
MCF-7 [4]
  effect on cell cycle of combination vs anticancer drug alone: no significant difference
  effect on cell cycle: arrest in the G2/M phase
MCF-10A; [9]
  effect of combined treatment with Iscador Qu on IC50 / antiproliferative effect: increased the antiproliferative effect
MDA-MB-231 [1]; [14]
  effect of combined treatment with Iscador Qu on IC50 / antiproliferative effect: increased the antiproliferative effect
MDA-MB-231 [1]; [5]
  Relative Change of IC50 (%): −48.45%
  fold decrease in IC50: 1.9 fold
MDA-MB-231 [1]; [6]
  Relative Change of IC50 (%): −69.56%
  fold decrease in IC50: 3.3 fold
  reduction in IC50: 70%
MCF-7 [2]; [13]
  effect of combined treatment with Iscador Qu on IC50 / antiproliferative effect: increased the antiproliferative effect
MCF-7 [2]; [7]
  Relative Change of IC50 (%): −47.30%
  fold decrease in IC50: ~2 fold
MCF-7 [2]; [8]
  Relative Change of IC50 (%): −80.76%
  fold decrease in IC50: 5.2 fold
  reduction in IC50: 81%

## CN(C)C(=O)c1cc2cnc(Nc3ccc(N4CCNCC4)cn3)nc2n1C1CCCC1 [Ribociclib]
MCF-10A; [9]
  effect of combined treatment with Iscador Qu on IC50 / antiproliferative effect: did not significantly affect
MDA-MB-231 [1]; [14]
  effect of combined treatment with Iscador Qu on IC50 / antiproliferative effect: did not significantly affect; also recorded: No significant alteration in IC50
MCF-7 [2]; [7]
  fold decrease in IC50: 2 fold
MCF-7 [2]; [8]
  fold decrease in IC50: 3 fold
  reduction in IC50: ~65%

## CC/C(=C(\c1ccccc1)c1ccc(OCCN(C)C)cc1)c1ccccc1 [Tamoxifen]
MCF-7 [2]
  increase in IC50: 31%
